In PubChem BioAssay (NCI):
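Where inhibition never reached the appropriate level, the endpoint shown equals the highest concentration tested. Otherwise, values were interpolated linearly from a five-concentration, 48-hour dose response in 96-well plates. Definition used: TGI = concentration required for complete inhibition of growth.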

Columns and labels:
Assay in all cases: inhibition of tumour cell growth, NCI panel, 48 h
KM12 colon = system: KM12 colon
OVCAR-3 ovarian = system: OVCAR-3 ovarian
SNB-19 CNS = system: SNB-19 CNS
NCI-H23 lung = system: NCI-H23 lung
TK-10 renal = system: TK-10 renal
CCRF-CEM leukemia = system: CCRF-CEM leukemia
HOP-62 NSCLC = system: HOP-62 NSCLC

SMILES | TGI (KM12 colon) | TGI (OVCAR-3 ovarian) | TGI (SNB-19 CNS) | TGI (NCI-H23 lung) | TGI (TK-10 renal) | TGI (CCRF-CEM leukemia) | TGI (HOP-62 NSCLC)
O=C(N/N=C1/C(=O)N(c2ccc(Cl)cc2Cl)C(=O)C(=O)C1c1nc2ccccc2o1)c1ccccc1O (centres undefined) | > 100 µM | 52.4 µM | > 100 µM | 84.3 µM | > 100 µM | > 100 µM | 75.2 µM
O=C(NC(=O)c1cn(CCNCCO)c(=O)[nH]c1=O)OCc1ccccc1 | > 100 µM | > 100 µM | – | > 100 µM | > 100 µM | > 100 µM | > 100 µM
CCC1C2C=CC(CC2)N1S(=O)(=O)c1ccc(C)cc1 (centres undefined) | > 100 µM | > 100 µM | > 100 µM | – | – | > 100 µM | 76.3 µM
Cc1ccc(S(=O)(=O)N/N=C/c2oc(-c3ccncc3)c(-c3ccncc3)c2[N+](=O)[O-])cc1 | > 100 µM | > 100 µM | > 100 µM | > 100 µM | > 100 µM | > 100 µM | > 100 µM
O=C(O)CSc1n[nH]c(-c2ccccc2)n1 | > 100 µM | > 100 µM | > 100 µM | > 100 µM | > 100 µM | > 100 µM | > 100 µM
c1ccc(SC2CCSc3ccccc3C2Sc2ccccc2)cc1 (centres undefined) | > 100 µM | > 100 µM | > 100 µM | – | > 100 µM | > 100 µM | > 100 µM
O=c1n(-c2ccccc2)c(=O)n2n1C1C=CC2C2C(C1)C2(Cl)Cl (centres undefined) | > 100 µM | > 100 µM | > 100 µM | – | > 100 µM | > 100 µM | > 100 µM
CCOc1ccc2c(c1)[n+]([O-])c(-c1ccccc1Cl)c(N)[n+]2[O-] | > 100 µM | > 100 µM | > 100 µM | > 100 µM | – | > 100 µM | > 100 µM
O=C1c2ccccc2C2(O)c3cc4ccccc4cc3OC12O (centres undefined) | > 100 µM | > 100 µM | > 100 µM | > 100 µM | > 100 µM | > 100 µM | > 100 µM
CC1=C2CCCC2=C/C(=N/Nc2ccc([N+](=O)[O-])cc2[N+](=O)[O-])CC1 | > 100 µM | > 100 µM | > 100 µM | > 100 µM | > 100 µM | > 100 µM | > 100 µM
CC(=O)n1c2c(c(=O)n1-c1ccccc1)S(=O)CCC2 (centres undefined) | > 100 µM | > 100 µM | > 100 µM | > 100 µM | > 100 µM | 26.4 µM | 28.2 µM
COc1ccc(/C(=N\NC(=O)C(N)=O)C(c2ccc(OC)cc2)C2(O)C(=O)Nc3c(Cl)cccc32)cc1 (centres undefined) | > 100 µM | > 100 µM | > 100 µM | > 100 µM | > 100 µM | > 100 µM | > 100 µM
O=C(CSc1nnc(-c2ccc(N=Cc3ccc(Cl)cc3)cc2)o1)Nc1ccc(Cl)cc1 | > 100 µM | – | > 100 µM | > 100 µM | > 100 µM | > 100 µM | > 100 µM
COc1ccc2oc(-c3cccnc3)cc(=O)c2c1 | > 100 µM | > 100 µM | > 100 µM | > 100 µM | – | > 100 µM | > 100 µM
CCOC(=O)C(C)(C)Oc1ccc2c(C)c(-c3ccc(Cl)cc3)c(=O)oc2c1 | – | > 100 µM | > 100 µM | > 100 µM | > 100 µM | > 100 µM | > 100 µM
O=C1[C@@H]2C3c4ccccc4C([C@@H]2C(=O)N1c1ccccc1)S3(=O)=O | > 100 µM | > 100 µM | > 100 µM | > 100 µM | > 100 µM | > 100 µM | –
COC1[C@@H](OC(C)=O)[C@@H](NC(=O)C(Cl)(Cl)Cl)C(I)[C@@H](N2C(=O)c3ccccc3C2=O)[C@H]1OC (some centres undefined) | > 100 µM | – | > 100 µM | > 100 µM | – | > 100 µM | > 100 µM
O=C(Nc1cc(Cl)ccc1Cl)c1cc2cccc(Cl)c2oc1=O | > 100 µM | > 100 µM | – | > 100 µM | > 100 µM | > 100 µM | > 100 µM
Cc1ccc(NC(=O)C2C(=O)N(c3ccc(C)c(C)c3)C(=O)C2N=N)cc1C (centres undefined) | > 100 µM | > 100 µM | > 100 µM | > 100 µM | > 100 µM | – | > 100 µM
O=C(O)[C@H](NS(=O)(=O)c1ccc2ccccc2c1)c1ccccc1 | – | – | > 100 µM | > 100 µM | – | > 100 µM | –
CCc1cccc(C)c1NC(=O)C(=O)Cc1nc2ccccc2o1 | – | > 100 µM | > 100 µM | > 100 µM | > 100 µM | > 100 µM | > 100 µM
CCOC(=O)NC(=O)c1cn(CCOC(=O)NCCCCCCNC(=O)OCCn2cc(C(=O)NC(=O)OCC)c(=O)[nH]c2=O)c(=O)[nH]c1=O | > 100 µM | > 100 µM | > 100 µM | – | – | > 100 µM | > 100 µM
CCOc1ccc(N2C(=O)/C(=C/c3ccc(N(CCC#N)CCC#N)cc3)N=C2c2cc([N+](=O)[O-])ccc2Cl)cc1 | 55.3 µM | 56.5 µM | > 100 µM | > 100 µM | > 100 µM | – | > 100 µM
